Source: patent US20240189311A1, “Combination Therapy of Obicetrapib and Ezetimibe for Use in Statin Intolerant Patients Suffering from Hyperlipidemia or Mixed Dyslipidaemia” (NEWAMSTERDAM PHARMA B.V., priority 2021, published 2024)

What was measured:
apolipoprotein B (ApoB) = test: Phase 2 study of obicetrapib and ezetimibe in mild dyslipidaemia: ApoB; assay type: in vivo, human
Text: (§1) Study drugs will be administered by the participant orally and once daily on Days 1 through 57. Study drugs should be administered at approximately the same time each morning, with food. On days with visits scheduled, study drugs should be administered with food following all fasted blood samples. If a participant forgets to take study drug on a given day, they should take the next dose as normal and should not take a double dose to make up for the forgotten dose.
(§2) Up to 2 weeks after the Screening Visit, participants will return to the site on Day 1 (Visit 2) to be randomized and begin treatment. Approximately 100 eligible participants (25 participants per treatment group) will be randomized in a 1:1:1:1 ratio to 1 of the following treatment groups: • Combination therapy: 5 mg obicetrapib+10 mg ezetimibe; • Obicetrapib monotherapy: 5 mg obicetrapib+placebo ezetimibe; • Ezetimibe monotherapy: placebo obicetrapib+10 mg ezetimibe; or • Placebo: placebo obicetrapib+placebo ezetimibe.
Similar MMRM models were developed to examine the percent change from Day 1 to Day 57 in LDL-C (for other pairwise treatment group comparisons beside the analysis specified for the primary efficacy endpoint, using the Friedewald formula) or ApoB. In order to maintain the overall Type 1 error rate, the secondary efficacy endpoints were tested sequentially at the 0.05 significance level according to the pre-specified order of hierarchy. This applied to the following analyses: • Percent change from Day 1 to Day 57 in LDL-C for the obicetrapib monotherapy group compared to the placebo group; • Percent change from Day 1 to Day 57 in ApoB for the combination therapy group compared to the placebo group; • Percent change from Day 1 to Day 57 in ApoB for the obicetrapib monotherapy group compared to the placebo group; • Percent change from Day 1 to Day 57 in LDL-C for combination therapy group compared to the ezetimibe monotherapy group; • Percent change from Day 1 to Day 57 in LDL-C for the obicetrapib monotherapy group compared to the ezetimibe monotherapy group; • Percent change from Day 1 to Day 57 in LDL-C, for the ezetimibe monotherapy group compared to the placebo group; and • Percent change from Day 1 to Day 57 in ApoB for the combination therapy group compared to the ezetimibe monotherapy group.

LDL-C = conditions: cited from earlier work
CETP = molecular target: T1, CETP (Homo sapiens, UniProt P11597); conditions: 5 mg obicetrapib dose; healthy subjects and patients; multiple dose; cited from earlier work
T1 construct: from tissue; host or cells: plasma of the dosed clinical-study subjects (endogenous CETP)
T1 sequence (P11597 18-493): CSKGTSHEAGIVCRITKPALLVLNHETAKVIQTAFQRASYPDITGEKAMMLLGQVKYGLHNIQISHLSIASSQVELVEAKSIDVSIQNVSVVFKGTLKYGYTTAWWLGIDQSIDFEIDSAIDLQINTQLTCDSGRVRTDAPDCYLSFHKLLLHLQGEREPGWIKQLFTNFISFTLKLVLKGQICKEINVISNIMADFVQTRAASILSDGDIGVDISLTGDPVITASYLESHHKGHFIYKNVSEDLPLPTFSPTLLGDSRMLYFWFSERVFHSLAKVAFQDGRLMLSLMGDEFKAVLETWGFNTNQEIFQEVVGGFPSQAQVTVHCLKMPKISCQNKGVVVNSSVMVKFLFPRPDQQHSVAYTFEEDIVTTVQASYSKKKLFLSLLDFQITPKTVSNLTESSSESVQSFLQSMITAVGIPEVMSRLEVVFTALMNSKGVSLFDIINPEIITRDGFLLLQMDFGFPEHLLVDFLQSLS

HDL-C = conditions: cited from earlier work
[1] = system: non-high-density lipoprotein cholesterol (non-HDL-C); test: Phase 2 study: non-HDL-C; assay type: in vivo, human; conditions: Day 57
Method: as §2
(§3) Similar MMRM models were used for the exploratory efficacy endpoints. The proportion of participants at Day 57 that achieved LDL-C<2.6 mmol/L (<100 mg/dL), LDL-C<1.8 mmol/L (<70 mg/dL), and LDL-C<1.3 mmol/L (<50 mg/dL) were examined through Logistic Regression Models for binary variables with covariates of the treatment groups and the baseline variable.

apolipoprotein E (ApoE) = test: Phase 2 study: ApoE; assay type: in vivo, human; conditions: Day 57
Method: as §2, §3

[2] = Phase 2 study: pharmacokinetics of obicetrapib; assay type: in vivo, human; conditions: by 8 weeks after long-term daily dosing
Text: Plasma obicetrapib concentrations will be summarized with descriptive statistics based on the PK Population. Exploration of any relationships with obicetrapib exposure will be performed, as appropriate.
The PK Population included all participants in the mITT Population who had sufficient blood samples collected for valid estimation of PK parameters.

[3] = system: low-density lipoprotein cholesterol (LDL-C); test: Phase 2 study of obicetrapib and ezetimibe in mild dyslipidaemia: LDL-C by Friedewald formula; assay type: in vivo, human
Text: as §1, §2
LDL-C level was collected using the following 2 approaches: • 1. At each scheduled visit, LDL-C level was calculated using the Friedewald formula; and • 2. In addition, at baseline (Day 1) and at the end of the 8-week Treatment Period (Day 57), LDL-C was measured for all participants by preparative ultracentrifugation (PUC). Primary Efficacy Endpoint Primary analysis
The primary efficacy analysis of the percent change from Day 1 to Day 57 in LDL-C was performed using a mixed model for repeated measures (MMRM) approach. The analysis included fixed effects for treatment, visit, and treatment-by-visit interaction, along with a covariate of the baseline value as a continuous covariate. Randomization was stratified by categories of LDL-C value (<3.5 mmol/L [<135 mg/dL] or >3.5 mmol/L [≥135 mg/dL]) only to ensure similar distribution of LDL-C across all treatment groups; however, the MMRM model included the original scale of the LDL-C value as a continuous covariate. The Restricted Maximum Likelihood estimation approach was used with an unstructured covariance matrix. The least squares (LS) means, standard errors, and 2-sided 95% confidence intervals (CIs) for each treatment group, for the pairwise comparisons of the combination therapy, obicetrapib monotherapy, and ezetimibe monotherapy to placebo, and for the pairwise comparisons of combination therapy and obicetrapib monotherapy versus ezetimibe monotherapy are provided. The treatment comparison was performed using a 2-sided test at the α=0.05 level of significance.
as §3
This study was a placebo-controlled, double-blind, randomized Phase 2 study in participants with mild dyslipidemia to evaluate the efficacy, safety, and tolerability of obicetrapib and ezetimibe combination therapy. The primary efficacy endpoint was percent change from Day 1 to Day 57 in LDL-C for the obicetrapib 5 mg+ezetimibe 10 mg group compared to the placebo group.

[4] = system: high-density lipoprotein cholesterol (HDL-C); test: Phase 2 study: HDL-C; assay type: in vivo, human; conditions: Day 57
Method: as §2, §3

[5] = Phase 2 study: safety and tolerability (adverse events); assay type: in vivo, human
Text: The Safety Population included all participants who received at least 1 dose of any study drug. Treatment classification was based on the actual treatment received. The Safety Population was the primary population used for the safety analyses.
The Safety Population was the primary population for the safety analyses. All safety endpoints are summarized descriptively. No statistical inference was applied to the safety endpoints.
AEs were categorized by primary system organ class (SOC) and preferred term (PT) as coded using the Medical Dictionary for Regulatory Activities (version 23.0) category designations. Summaries of AEs, including the count and percentage of participants who experienced an AE, are provided.
An overview of treatment-emergent adverse events (TEAEs) is provided, including counts and percentages of participants (and event counts).
Listings are presented specifically for TEAEs, treatment-emergent serious adverse events (TESAEs), and TEAEs leading to discontinuation of study drug.

[6] = mITT population, mild dyslipidaemia, oral once daily, Day 57
[7] = mITT population, oral once daily, baseline to Day 57
[8] = previous multiple-dose clinical studies, 5 mg obicetrapib dose, healthy subjects and patients

CCOC(=O)N1c2ccc(C(F)(F)F)cc2[C@@H](N(Cc2cc(C(F)(F)F)cc(C(F)(F)F)c2)c2ncc(OCCCC(=O)O)cn2)C[C@H]1C [Obicetrapib 5 mg]
Percent change from baseline in ApoB compared to placebo (in words) (apolipoprotein B (ApoB); Day 57, compared to placebo): significant reductions
ApoB at Day 57, mean (apolipoprotein B (ApoB); [6]): 78.3 mg/dL
ApoB at Day 57, median (apolipoprotein B (ApoB); [6]): 75.0 mg/dL
Change from baseline to Day 57 in ApoB, mean (apolipoprotein B (ApoB); [7]): -22.6 mg/dL
Change from baseline to Day 57 in ApoB, median (apolipoprotein B (ApoB); [7]): -24.0 mg/dL
Percent change from baseline to Day 57 in ApoB, mean (apolipoprotein B (ApoB); [7]): −22.15%
Percent change from baseline to Day 57 in ApoB, median (apolipoprotein B (ApoB); [7]): −23.50%
Effect on LDL cholesterol concentrations (in words) (LDL-C; Phase II trial TULIP, 10 mg and 5 mg obicetrapib as monotherapy): able to reduce LDL cholesterol concentrations
Effect on LDL-C levels (in words) (LDL-C; [8]): decreased
CETP activity and concentrations (in words) (CETP): effectively reduced
Effect on HDL cholesterol concentration (in words) (HDL-C; Phase II trial TULIP, mono-therapy and in combination with statins): increased considerably
Effect on HDL-C levels (in words) (HDL-C; [8]): increased
Percent change from baseline in non-HDL-C compared to placebo (in words) [1]: significant reductions
Percent change from baseline in ApoE compared to placebo (in words) (apolipoprotein E (ApoE)): significant increases
Elimination of obicetrapib (in words) [2]: almost complete elimination
Number of participants that achieved LDL-C<70 mg/dL by Friedewald formula ([3]; Day 57): 7 participants
Number of participants that achieved LDL-C<100 mg/dL by Friedewald formula ([3]; Day 57): 16 participants
Percentage of participants that achieved LDL-C<70 mg/dL by Friedewald formula ([3]; Day 57): 25.0%
Percentage of participants that achieved LDL-C<100 mg/dL by Friedewald formula ([3]; Day 57): 57.1%
LDL-C by Friedewald formula at Day 57, mean [3, 6]: 87.0 mg/dL
LDL-C by Friedewald formula at Day 57, median [3, 6]: 87.0 mg/dL
Change from baseline to Day 57 in LDL-C by Friedewald formula, mean [3, 7]: -39.5 mg/dL
Change from baseline to Day 57 in LDL-C by Friedewald formula, median [3, 7]: -41.0 mg/dL
Percent change from baseline to Day 57 in LDL-C by Friedewald formula, mean [3, 7]: −31.88%
Percent change from baseline to Day 57 in LDL-C by Friedewald formula, median [3, 7]: −34.40%
Percent change from baseline in HDL-C compared to placebo (in words) [4]: significant increases
Safety and tolerability (in words) ([5]; 8 weeks of treatment, oral once daily): generally safe and well tolerated
Participants who experienced at least 1 TEAE, number ([5]; Safety Population): 4 participants
Participants who experienced at least 1 TEAE, percentage ([5]; Safety Population): 14.3%
Participants who experienced at least 1 study drug-related TEAE, number ([5]; Safety Population): 1 participants
Participants who experienced at least 1 study drug-related TEAE, percentage ([5]; Safety Population): 3.6%
Participants with a TEAE with a maximum severity of moderate, number ([5]; Safety Population): 1 participants
Participants with a TEAE with a maximum severity of moderate, percentage ([5]; Safety Population): 3.6%
